The source of these data is the supplement of paper PMC10307832.

Common to all, as to assay: relative viability (nuclei count vs DMSO), 5 days (fraction); higher = more cells survive
Compound in test [1]: C[C@]12O[C@H](C[C@]1(O)CO)n1c3ccccc3c3c4c(c5c6ccccc6n2c5c31)CNC4=O [Lestaurtinib] + CC1(C)CCC(c2ccc(Cl)cc2)=C(CN2CCN(c3ccc(C(=O)NS(=O)(=O)c4ccc(N[C@H](CCN5CCOCC5)CSc5ccccc5)c(S(=O)(=O)C(F)(F)F)c4)cc3)CC2)C1 [Navitoclax] (partner 0.5 µM)
Put shortly:
(§1)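 The day after seeding in 1536-well plates, lung cancer cell lines were treated by pin tool with a single drug, or with a fixed anchor-drug dose together with five library-drug doses (not always all listed) in √10 steps. After 5 days, a combined fix-and-stain solution (final 0.05% Triton X-100, 1% formaldehyde, 1 ug/ml Hoechst) was added. Nuclei counted on 4× images gave relative viability as treated counts over vehicle counts, reported as the median of duplicate plates.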

Compound in test [2]: C1/C(=C\C2=CC=CS2)/C(=O)/C(=C/C3=CC=CS3)/C1 + C[C@]1(O)C[C@@H](c2nc(-c3ccc4ccc(-c5ccccc5)nc4c3)c3c(N)nccn32)C1 [Linsitinib] (partner 1 µM)
The procedure, abridged:
as §1

Compound in test [3]: C[C@]12O[C@H](C[C@]1(O)CO)n1c3ccccc3c3c4c(c5c6ccccc6n2c5c31)CNC4=O [Lestaurtinib] + O=C(CCCCCCC(=O)Nc1ccccc1)NO [Vorinostat] (partner 1 µM)
The procedure, abridged:
as §1

Compound in the test “TPCA-1 + Trametinib”: C1=CC(=CC=C1C2=CC(=C(S2)NC(=O)N)C(=O)N)F [TPCA-1] + CC(=O)Nc1cccc(-n2c(=O)n(C3CC3)c(=O)c3c(Nc4ccc(I)cc4F)n(C)c(=O)c(C)c32)c1 [Trametinib] (partner 0.02 µM)
Put shortly:
as §1

In the case of UMC-11, the relative viability in test [1] (first compound 0.005 µM) came out at 0.294; in test [1] (first compound 0.01581 µM) it was 0.275; in test [1] (first compound 0.05 µM) it was 0.251; in test [1] (first compound 0.1581 µM) it was 0.144; in test [1] (first compound 0.5 µM), 0.143; in test [2] (first compound 0.2 µM), 1.02. In addition, the relative viability was 1.07 in test [2] (first compound 0.6325 µM); 1.03 in test [2] (first compound 2 µM); 1 in test [2] (first compound 20 µM); 0.367 in test [3] (first compound 0.005 µM); 0.36 in test [3] (first compound 0.01581 µM); 0.323 in test [3] (first compound 0.05 µM). Besides, the relative viability in test [3] (first compound 0.1581 µM) came out at 0.182; in test [3] (first compound 0.5 µM) it was 0.118; with TPCA-1 + Trametinib (first compound 0.04 µM), 0.648; with TPCA-1 + Trametinib (first compound 0.1265 µM), 0.612; with TPCA-1 + Trametinib (first compound 0.4 µM), 0.804; with TPCA-1 + Trametinib (first compound 1.265 µM), 0.831. Also, in the test with TPCA-1 + Trametinib (first compound 4 µM), the relative viability was 0.152.
